Source: patent US9597407B2, “Targeted antimicrobial moieties” (C3 Jian, Inc., priority 2009, dated 2017)
Entries after “also recorded” stand apart in the source; their conditions may differ.

B1: PF-745 (peptide)
chain 1: ANSQNSLFSNRSSFKSIFDKKSNITTNATTPNSNIIIN
chain 2: B1 chain 1
modifications: Peptide with targeting and/or antimicrobial activity
B2: PF-761 (peptide)
chain 1: SKFELVNYASGCSCGADCKCASETECKCASKK
chain 2: B2 chain 1
modifications: Peptide with targeting and/or antimicrobial activity
B3: PF-749 (peptide)
chain 1: GVNKWWEEHNKAKLWKNVKGKFLEGEGEEEDDE
chain 2: B3 chain 1
modifications: Peptide with targeting and/or antimicrobial activity
B4: PF-763 (peptide)
chain 1: GIWMARNYFHRSSIRKVYVESDKEYERVHPMQKIQYEGNYKSQ
chain 2: B4 chain 1
modifications: Peptide with targeting and/or antimicrobial activity

Assays:
microorganisms [1] = test: Peptide activities: binding, antimicrobial, growth or phenotype altering (Table 8)
Source text: In certain embodiments, peptides described herein can have multiple activities. Thus for example, a peptide can have both binding/targeting activity and antimicrobial activity. Such peptides can be used, e.g., in a chimeric construct, for any or all of these properties. Thus, for example, a peptide designated “B” in Table 8 can be used as a targeting peptide. If it is also designated G or M it can also be used for antimicrobial activity.

bacteria = test: Binding of targeting peptides to microorganisms (Table 3); conditions: preferably 1x PBS; for Target(s) (microorganism bound by the targeting peptide) / Target(s) (microorganisms bound by the targeting peptide): peptide binding in aqueous buffers that varied depending on peptide solubility
microorganisms [2] = test: Morphology, biofilm and growth disruption by peptides (Table 5); assay type: cell-based; parameters: key: A: Peptide aggregates; B: Less hyphal formation; Clumps; Diffuse clumps and small polyps; F: Diffuse growth; H: Thin; I: Growth inhibition; Microcolony formation; Rippled; Small polyps; Thick; W: Halo formation on top, microlonies on bottom
Source text: In certain embodiments peptides that induce alterations in phenotype or other biological activities can also be used as antimicrobial effector moieties.

[3] = microorganism the targeting peptide binds, binding in aqueous buffers that varied with peptide solubility

Row | Molecule | Activities (microorganisms [1]) | Target(s) (microorganism bound by the targeting peptide) (bacteria) | Organism, effect (morphology, biofilm and growth disruption) (microorganisms [2]; MRSA) | Organism, effect (morphology, biofilm and growth disruption) (microorganisms [2]; S. epidermidis) | Organism, effect (morphology, biofilm and growth disruption) (microorganisms [2]; S. pneumoniae) | other results
1 | PF-635 (chain 1 MNAHGHSLIFQKMIVHAFAFFSKQKNYLYF; chain 2 MNAHGHSLIFQKMIVHAFAFFSKQKNYLYF; Peptide with targeting and/or antimicrobial activity) | G B | S. epidermidis and P. aeruginosa and C. albicans and MRSA and S. pneumoniae and E. faecalis and C. jeikeium | MRSA (D) | S. epidermidis (M) | S. pneumoniae (D) | Organism, effect (morphology, biofilm and growth disruption) (microorganisms [2]; C. albicans): C. albicans (B); Organism, effect (morphology, biofilm and growth disruption) (microorganisms [2]; C. jeikeium): C. jeikeium (D); Organism, effect (morphology, biofilm and growth disruption) (microorganisms [2]; E. faecalis): E. faecalis (D)
2 | PF-452 (MNNWIKVAQISVTVINEVIDIMKEKQNGGK; Peptide with targeting and/or antimicrobial activity) | G B |  | MRSA (C) | S. epidermidis (C) | S. pneumoniae (R) | Target(s) (microorganisms bound by the targeting peptide) (bacteria): M. luteus; also recorded: P. aeruginosa; also recorded: C. albicans; also recorded: S. pneumoniae; also recorded: E. faecalis; also recorded: C. jeikeium; also recorded: M. smegmatis; Organism, effect (morphology, biofilm and growth disruption) (microorganisms [2]; E. coli): E. coli (C); Organism, effect (morphology, biofilm and growth disruption) (microorganisms [2]; E. faecalis): E. faecalis (C)
3 | PF-362 (NIERILKEKVWMIRCVE; Peptide with targeting and/or antimicrobial activity) | G B |  |  |  |  | Target(s) (bacteria; microorganism bound by the targeting peptide, binding in aqueous buffers chosen by peptide solubility): S. epidermidis; also recorded: E. coli; also recorded: P. aeruginosa; also recorded: C. albicans; also recorded: E. faecalis; also recorded: C. jejuni; Organism, effect (microorganisms [2]; E. coli): E. coli (C); Organism, effect (microorganisms [2]; MRSA): MRSA (C)
4 | PF-046 (LDFYLTKHLTLML; Peptide with targeting and/or antimicrobial activity) | G B |  |  |  |  | Target(s) (bacteria; [3]): E. coli; also recorded: E. faecalis; also recorded: C. jeikeium; Organism, effect (microorganisms [2]; C. jeikeium): C. jeikeium (R); Organism, effect (microorganisms [2]; MRSA): MRSA (R); Organism, effect (microorganisms [2]; S. epidermidis): S. epidermidis (C)
5 | PF-445 (ASMTKRLKLAMSKV; Peptide with targeting and/or antimicrobial activity) | G B |  |  |  | S. pneumoniae (M) | Target(s) (microorganisms bound by the targeting peptide) (bacteria): M. luteus; also recorded: S. pneumoniae; also recorded: C. jeikeium
6 | PF-034 (EPKKKHFPKMESASSEP; Peptide with targeting and/or antimicrobial activity) | G B |  |  |  |  | Target(s) (bacteria; [3]): M. luteus; Organism, effect (microorganisms [2]; S. epidermidis): S. epidermidis (A)
7 | PF-540 (KSILILIKVIFIGQTTIIL; Peptide with targeting and/or antimicrobial activity) | G B |  | MRSA (H) | S. epidermidis (H) | S. pneumoniae (R) | Target(s) (microorganisms bound by the targeting peptide) (bacteria): C. albicans; Organism, effect (morphology, biofilm and growth disruption) (microorganisms [2]; E. coli): E. coli (R)
8 | B1 | G B | S. epidermidis; also recorded: M. luteus; also recorded: C. albicans | MRSA (C) |  | S. pneumoniae (C) | Organism, effect (morphology, biofilm and growth disruption) (microorganisms [2]; M. luteus): M. luteus (C); Organism, effect (morphology, biofilm and growth disruption) (microorganisms [2]; S. mutans): S. mutans (D)
9 | B2 | G B | S. epidermidis and M. luteus and P. mirabilis and P. aeruginosa and C. albicans and MRSA and S. pneumoniae and E. faecalis | MRSA (D) | S. epidermidis (C) | S. pneumoniae (C) | Organism, effect (morphology, biofilm and growth disruption) (microorganisms [2]; E. coli): E. coli (C); Organism, effect (morphology, biofilm and growth disruption) (microorganisms [2]; M. luteus): M. luteus (C); Organism, effect (morphology, biofilm and growth disruption) (microorganisms [2]; P. aeruginosa): P. aeruginosa (C); Organism, effect (morphology, biofilm and growth disruption) (microorganisms [2]; S. mutans): S. mutans (D)
10 | B3 | G B | S. epidermidis; also recorded: M. luteus; also recorded: E. coli; also recorded: P. aeruginosa; also recorded: C. albicans; also recorded: S. pneumoniae; also recorded: C. jeikeium |  |  | S. pneumoniae (H) | 
11 | B4 | G B | S. epidermidis and M. luteus and E. coli and C. albicans and MRSA and S. pneumoniae and E. faecalis | MRSA (D) | S. epidermidis (M) | S. pneumoniae (C) | Organism, effect (morphology, biofilm and growth disruption) (microorganisms [2]; M. luteus): M. luteus (C)
